Consider 1 compound from patent US20260042802A1, “POLYPEPTIDE AND USE THEREOF” (priority 2024, published 2026).

For the assay, the system named is mouse acetate acid writhing model. Nature of the assay: Mouse acetate acid writhing model. The assay is classed as in vivo, C57BL/6 mice. As to conditions: Diclofenac Sodium Group, 30 mg/kg i.p. once daily for 7 days; 8 mice. The source says:
Seventy SPF-grade healthy C57BL/6 mice, half male and half female, weighing 22-25 g and 8-10 weeks old, are randomly selected. Seventy C57BL/6 mice are weighed and numbered in ascending order of body weight (No. S1-S70). The mice are randomly divided into seven groups in terms of the randomized numerical table method, which are the saline group and the experimental groups, among which the experimental groups include the PPN-01 group, the PPN-04 group, the PPN-06 group, the PPN-11 group, the PPN-12 group, and the PPN-16 group. The dosing concentration (i.e., the concentration of added polypeptides PPN-01, PPN-04, PPN-06, PPN-11, PPN-12, and PPN-16) in each group is 10 mg/kg, with 10 mice in each group.
Saline Group: 10 healthy mice are routinely reared for one week; the saline is intraperitoneally injected once daily at a concentration of 10 ml/kg for 7 consecutive days; 15 min after the last injection is finished, 0.7% glacial acetic acid (10 ml/kg) is intraperitoneally injected; and each mouse is observed for their writhing behaviors.
Experimental Group: 10 healthy mice are routinely reared for one week; 10 ml/kg of different polypeptides are injected intraperitoneally at a concentration of 0.1 mL/10 g once daily for 7 consecutive days; 15 min after the last injection is finished, 0.7% glacial acetic acid (10 ml/kg) is intraperitoneally injected; and each mouse is observed for their behaviors in writhing.
During the above experiments, the time of first writhing (writhing latency) and the number of writhing in each mouse within 15 min are recorded immediately after the injection of glacial acetic acid solution in each group of mice. When behavioral responses such as inward concavity of the abdomen, extension of the torso and hind limbs, and elevation of the buttocks occur, it is considered to be a complete writhing response, and the results are shown in Table 3 and FIG. 6.
Forty SPF-grade healthy C57BL/6 mice, half male and half female, weighing 22-25 g and 8-10 weeks old, are randomly selected. Forty C57BL/6 mice are weighed and numbered in ascending order of body weight (No. 1 to No. 40). The mice are randomly divided into five groups according to the randomized numerical table method, namely, the saline group, the low-concentration group (2.5 mg/kg), the medium-concentration group (10 mg/kg), the high-concentration group (40 mg/kg), and the diclofenac sodium group (30 mg/kg), with eight mice in each group.
Saline Group: 8 healthy mice are routinely reared for one week; the saline is intraperitoneally injected once daily at a concentration of 10 ml/kg for 7 consecutive days; 15 min after the last injection is finished, 0.7% glacial acetic acid (10 ml/kg) is intraperitoneally injected; and each mouse is observed for their behaviors in writhing. […]
Background: Writhing tests count abdominal constrictions after an irritant is injected.

In the case of `O=C(O)Cc1ccccc1Nc1c(Cl)cccc1Cl` [Diclofenac Sodium, diclofenac sodium, reference compound], the “Inhibiting Rate (writhing)” value is 77.6%.
